The values below come from US20240269303A1, “CELL TARGETING CONSTRUCTS AND USES THEREOF” (Research Development Foundation, priority 2022, published 2024).

In one assay the test system is OVCAR8/LGR5 cells. The assay can be described thus: Growth rate inhibition assay (CCK8, 120 h exposure). It is filed as cell-based, human.
The test system of a further assay is OVCAR8/EV cells. The description is as above. The assay is classed as cell-based, human. As to conditions: OVCAR8/EV (LGR5-poor) cells.
The test system of the next assay is HEK293/LGR5 cells. The assay is described as above. The assay is classed as cell-based, human.
The target of another assay is T1, LGR6 (Homo sapiens, UniProt Q9HBX8).
T1 sequence (Q9HBX8 25-967): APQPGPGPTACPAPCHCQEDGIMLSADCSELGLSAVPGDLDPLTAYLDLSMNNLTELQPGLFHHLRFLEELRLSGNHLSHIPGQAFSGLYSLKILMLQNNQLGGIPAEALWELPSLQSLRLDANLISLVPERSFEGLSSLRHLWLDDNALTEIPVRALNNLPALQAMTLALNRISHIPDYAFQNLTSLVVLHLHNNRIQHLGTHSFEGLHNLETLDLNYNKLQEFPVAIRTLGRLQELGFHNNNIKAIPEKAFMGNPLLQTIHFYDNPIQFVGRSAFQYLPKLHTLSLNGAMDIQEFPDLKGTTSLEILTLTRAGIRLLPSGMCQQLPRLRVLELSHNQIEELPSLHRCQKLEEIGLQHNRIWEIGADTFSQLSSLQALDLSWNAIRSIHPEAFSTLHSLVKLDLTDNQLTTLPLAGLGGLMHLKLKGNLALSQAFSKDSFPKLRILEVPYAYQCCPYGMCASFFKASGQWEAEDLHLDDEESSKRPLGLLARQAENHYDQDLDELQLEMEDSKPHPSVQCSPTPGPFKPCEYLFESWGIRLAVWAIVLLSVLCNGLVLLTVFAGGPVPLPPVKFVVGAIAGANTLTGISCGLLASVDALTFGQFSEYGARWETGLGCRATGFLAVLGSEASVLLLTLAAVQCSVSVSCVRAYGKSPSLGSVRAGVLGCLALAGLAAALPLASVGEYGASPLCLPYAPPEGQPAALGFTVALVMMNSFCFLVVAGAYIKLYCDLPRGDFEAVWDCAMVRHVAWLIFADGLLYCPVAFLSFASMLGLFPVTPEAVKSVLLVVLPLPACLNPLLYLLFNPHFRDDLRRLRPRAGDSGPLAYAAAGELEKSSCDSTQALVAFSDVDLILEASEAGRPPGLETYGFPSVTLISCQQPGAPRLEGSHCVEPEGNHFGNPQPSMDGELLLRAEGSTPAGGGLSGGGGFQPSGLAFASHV
As to conditions: read-out: affinity; cited from earlier work.

The target in the next assay is T2, LGR5 (Homo sapiens, UniProt O75473).
T2 sequence (O75473 22-907): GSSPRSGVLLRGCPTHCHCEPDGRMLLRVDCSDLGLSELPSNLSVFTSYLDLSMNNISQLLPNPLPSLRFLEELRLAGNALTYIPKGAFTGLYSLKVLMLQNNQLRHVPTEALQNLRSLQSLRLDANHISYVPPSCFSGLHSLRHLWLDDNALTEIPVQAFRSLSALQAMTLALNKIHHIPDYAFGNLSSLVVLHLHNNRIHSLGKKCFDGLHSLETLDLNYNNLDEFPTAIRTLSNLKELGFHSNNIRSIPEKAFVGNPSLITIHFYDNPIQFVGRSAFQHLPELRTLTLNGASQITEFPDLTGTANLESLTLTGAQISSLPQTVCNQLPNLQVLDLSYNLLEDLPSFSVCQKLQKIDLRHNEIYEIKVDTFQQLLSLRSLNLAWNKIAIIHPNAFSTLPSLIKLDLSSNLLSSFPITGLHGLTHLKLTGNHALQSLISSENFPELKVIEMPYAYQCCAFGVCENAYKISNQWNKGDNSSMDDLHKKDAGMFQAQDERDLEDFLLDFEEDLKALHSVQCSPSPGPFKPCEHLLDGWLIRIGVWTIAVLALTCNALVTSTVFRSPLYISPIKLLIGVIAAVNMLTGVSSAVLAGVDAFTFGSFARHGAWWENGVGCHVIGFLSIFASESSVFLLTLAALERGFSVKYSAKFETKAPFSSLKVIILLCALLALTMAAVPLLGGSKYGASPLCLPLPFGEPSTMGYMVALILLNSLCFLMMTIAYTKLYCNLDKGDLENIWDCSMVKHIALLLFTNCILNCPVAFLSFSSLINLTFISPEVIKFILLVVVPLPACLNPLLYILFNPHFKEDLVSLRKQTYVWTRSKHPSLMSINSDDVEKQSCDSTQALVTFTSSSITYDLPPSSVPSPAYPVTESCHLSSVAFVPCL
As to conditions: read-out: affinity; cited from earlier work.

Square brackets hold non-standard residues; d marks the D form. Peptide text beside a SMILES is read from it. * marks the point of attachment. Dolaproine = CO[C@@H]([C@@H]1CCCN1)[C@@H](C)C(=O)O; Dil = CC[C@H](C)[C@H](NC)[C@@H](CC(=O)O)OC; X1 = C[C@@H](N*)[C@@H](O)c1ccccc1; NMeV = CN[C@H](C(=O)O)C(C)C

A word on the IC50: it is the concentration that gives 50% inhibition. Regarding `CC[C@H](C)[C@@H]([C@@H](CC(=O)N1CCC[C@H]1[C@H](OC)[C@@H](C)C(=O)N[C@H](C)[C@@H](O)c1ccccc1)OC)N(C)C(=O)[C@@H](NC(=O)[C@@H](NC)C(C)C)C(C)C` [free MMAE, Monomethyl auristatin E, reference compound] (H-[NMeV]V[Dil][Dolaproine]-X1), the “OVCAR8/LGR5 cells more resistant than OVCAR8/EV cells” value in the assay with OVCAR8/LGR5 cells came out at 1.5 fold. Moreover, the IC50 amounted to 129 nM in the assay with OVCAR8/LGR5 cells (OVCAR8/LGR5 (LGR5-rich) cells, 120 h exposure, CCK8) and 85 nM with OVCAR8/EV cells. Also, the “HEK293/LGR5 cells more resistant than HEK293/EV cells” value in the assay on HEK293/LGR5 cells was found to be 1.6 fold.
Take “Fu1-Fu2 domain of RSPO1: receptor-binding Fu1-Fu2 domain of human RSPO1”: the Kd with LGR6 and with LGR5 was ~3 nM in each case.
